Counter-ions that a name gives are not always drawn.
Assays:
V1 Receptor = V1 Receptor (Rattus norvegicus, UniProt P30560); assay: V1 Receptor Binding Assay ([3H]-Arg-vasopressin, rat liver plasma membrane); details: 37° C., 10 minutes, pH 8.0
Procedure: After incubation, the mixture is filtered three times using the glass filter (GF/F) so as to separate the membrane preparation combining with vasopressin and then washed with the buffer (5 ml). This glass filter is taken out and mixed with liquid scintillation cocktail. The amount of [^3 H]-vasopressin combining with the membrane is measured by liquid scintillation counter and the rate of the inhibitory effect of the test compound is estimated according to the following equation.
(§1) C1 : The amount of [^3 H]-vasopressin combining with the membrane in the presence of the test compound of a known amount.
(§2) C0 : The amount of [^3 H]-vasopressin combining with the membrane in the absence of the test compound.
B1 : The amount of [^3 H]-vasopressin combining with the membrane in the presence of the excess amount of vasopressin (10^-6 M).
(§3) The results are expressed as IC50 value, which is the concentration of the test compound required to achieve the inhibitory effect in the rate of 50%.

V2 Receptor = molecular target: T1, V2 Receptor (Rattus norvegicus, UniProt Q00788); assay: V2 Receptor Binding Assay ([3H]-Arg-vasopressin, rat kidney plasma membrane); details: 4° C., pH 8.0
T1 construct: rat kidney plasma membrane preparations; from tissue; host or cells: rat kidney plasma membranes
T1 sequence (Q00788 whole entry): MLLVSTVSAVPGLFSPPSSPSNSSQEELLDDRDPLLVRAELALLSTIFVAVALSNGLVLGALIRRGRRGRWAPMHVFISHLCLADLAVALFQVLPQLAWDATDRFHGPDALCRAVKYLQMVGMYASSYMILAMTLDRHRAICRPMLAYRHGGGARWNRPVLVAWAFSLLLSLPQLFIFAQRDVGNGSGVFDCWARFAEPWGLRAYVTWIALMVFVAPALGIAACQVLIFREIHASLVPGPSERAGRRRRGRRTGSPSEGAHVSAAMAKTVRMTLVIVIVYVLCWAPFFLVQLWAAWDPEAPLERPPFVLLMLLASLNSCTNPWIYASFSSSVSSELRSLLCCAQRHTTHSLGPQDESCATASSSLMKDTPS
Procedure: Chem., 253, 3211 (1978)], the plasma membrane (100000 dpm, 4×10^-10M) of [^3 H]-Arg-vasopressin and a test compound (0.6 mg, 10^-10 -10^-5 M) are incubated at 4° C. for 3 hours in 100 mM Tris-HCl buffer pH: 8.0 (250 μl ) containing 5 mM MgCl2, 1 mM EDTA and 0.1 % BSA. After incubation, the mixture is filtered using the glass filter (GF/F) so as to separate the membrane preparation combining with vasopressin and then washed twice with the buffer (5 ml). This glass filter is taken out and mixed with liquid scintillation cocktail. The amount of [^3 H]-vasopressin combining with the membrane is measured by liquid scintillation counter and the rate of the inhibitory effect of the test compound is estimated according to the following equation. [formula]
as §1, §2
B1 : The amount of [3H-vasopressin combining with the membrane in the presence of the excess amount of vasopressin (10^-6 M).
as §3

V1 Receptor, sequence (P30560 whole entry): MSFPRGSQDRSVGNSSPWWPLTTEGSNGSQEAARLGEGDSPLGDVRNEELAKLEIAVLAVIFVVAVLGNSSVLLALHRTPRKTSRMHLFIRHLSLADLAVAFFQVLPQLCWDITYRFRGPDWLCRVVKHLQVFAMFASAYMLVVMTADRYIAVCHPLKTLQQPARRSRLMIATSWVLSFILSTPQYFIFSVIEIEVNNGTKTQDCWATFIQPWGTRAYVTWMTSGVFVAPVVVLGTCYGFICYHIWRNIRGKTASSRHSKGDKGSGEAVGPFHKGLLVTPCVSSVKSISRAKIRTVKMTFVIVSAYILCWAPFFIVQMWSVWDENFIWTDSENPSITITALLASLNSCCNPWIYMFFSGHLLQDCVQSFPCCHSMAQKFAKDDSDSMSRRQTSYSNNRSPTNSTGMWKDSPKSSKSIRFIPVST

| IC50 (V1 Receptor) [nM] | IC50 (V2 Receptor) [nM] | Compound |
| --- | --- | --- |
| 110 | 15 | Cc1ccccc1C(=O)Nc1ccc(C(=O)N2CCCC(CC(=O)N3CCCC3)c3cc(F)ccc32)cc1 (stereo not shown) [Test Compound 50, 5-[(1-Pyrrolidinyl)carbonylmethyl]-7-fluoro-1-[4-(2-methylbenzoylamino)benzoyl]-2,3,4,5-tetrahydro-1H-benzazepine] |
| 21 | 12 | COc1cc(NC(=O)c2ccccc2C)ccc1C(=O)N1CCCC(OC(=O)CN2CCOCC2)c2cc(Cl)ccc21 (stereo not shown) [Test Compound 17, 5-(2-Morpholinoacetyloxy)-7-chloro-1-[2-methoxy-4-(2-methylbenzoylamino)benzoyl]-2,3,4,5-tetrahydro-1H-benzazepine hydrochloride] |
